How the values were obtained:
[1] = tested on: C. albicans strain SC5314 (Wild Type); assay: Growth of C. albicans with ManSIFG and 0.2M CaCl2, cell count by hemocytometer; format: cell-based, Candida albicans; conditions: 0.2M CaCl2 alone
Procedure: This signaling pathway is considered to regulate synthesis of chitin, an important carbohydrate which is part of the cell wall and septum, which is formed during cell division. C. albicans strain SC5314 (wild type) was cultured from frozen stock in Yeast Nitrogen Base media (YNB) with 2% glucose and grown overnight at 30° C. with shaking at 225 rpm. Cell concentration was determined by hemocytometer. […] […] (62.5 μg/ml) was added to test cultures but not to control cultures. The experiment was done in triplicates. The culture tubes were placed on a nutator inside a 30° C. incubator and grown for 24 hours. Time points were taken at 6, 12, and 24 hours. Cell concentration was monitored by hemocytometer at 6, 12, and 24-hour time points. Statistical analysis was done using two-tailed Student's t-Test.

[2] = tested on: C. albicans wild type strain (SC5314); assay: Checkerboard synergy assay / MIC analysis, OD600; format: cell-based, Candida albicans
Procedure: (§1) The C. albicans wild type strain (SC5314) was cultured from frozen stock in Yeast Peptone Dextrose (YPD) and grown overnight at 30° C. with shaking at 225 rpm. Cell concentration was determined by hemocytometer and used to adjust the inoculum to 2×10^3 cells/ml in fresh YPD, which is 2× the desired final concentration. 50 ul of the inoculum was added to each well for a final culture volume of 100 ul. The final cell concentration was 1×10^3 cells/ml. The plate was sealed with plastic film and placed in a BioTek Synergy HT plate reader for 24 hours at 37° C. At each time point, the plate was shaken for 10 seconds prior to each OD600 reading.

[3] = tested on: wildtype C. albicans strain SC5314; assay: Growth of C. albicans in YNB, cell count by hemocytometer; format: cell-based, Candida albicans
Procedure: (§2) The wildtype C. albicans strain SC5314 was cultured from frozen stock in Yeast Nitrogen Base (YNB) media with 2% glucose and grown overnight at 30° C. with shaking at 225 rpm as described previously (Chinnici et al., 2019). Cell concentration of the overnight culture was determined by hemocytometer. This was used to inoculate fresh cultures with a final starting concentration of 5×10^5 cells/ml in fresh YNB contain either no treatment (control) or various concentrations (31.25, 62.5, or 125 μg/ml) of the mannose disaccharide inhibitor. The cultures were run in duplicates and incubated at 30° C. on a nutator. Cell concentration was analyzed by counting on hemocytometer at 10, 14, 18, and 24-hour time points. Statistical analysis was done using two-tailed Student's t-Test.
as §2, with “previously.” for “previously (Chinnici et al., 2019).”, “62.5 μg/ml” for “various concentrations (31.25, 62.5, or 125 μg/ml)”, “D-Mannose.” for “the mannose disaccharide inhibitor.”

[4] = tested on: C. albicans strain SC5314 (Wild Type); assay: Germ tube / hypha formation of C. albicans induced by 20% FBS, count by hemocytometer; format: cell-based, Candida albicans; conditions: 62.5 μg/ml, 37° C., significantly (FIG. 3)
[5] = tested on: Trychophyton rubrum (ATCC-MYA-4607); assay: MIC testing against toe nail fungus; format: cell-based, Trichophyton rubrum; conditions: various concentrations, SDB, 25° C., 6 days (FIG. 10)
Procedure: Effect […] on other fungal cells. Trichophyton rubrum is the fungal pathogen that causes onychomycosis or toe nail fungus. […] The experiment was performed in triplicates. […] A 50 ul inoculum was added to each well for a final culture volume of 100 ul. […] The plate was cultured for 6 days at 25° C. and then imaged using an iPhone camera.

[6] = tested on: Candida parapsilosis (ATCC-22019) wild type strain; assay: Antifungal activity against C. parapsilosis; format: cell-based; conditions: at very low concentrations (FIG. 12)
Procedure: as §1, with “ManSIFG MIC analysis for Candida albicans and effects of CaCl2. A checkerboard synergy assay was used to test ManSIFG and CaCl2) each by themselves and in various combinations of each other. Drug concentrations to be tested were prepared 4× concentrated and dispensed into a sterile 96-well culture plate. 25 ul of each ManSIFG dilution was dispensed in each column, such that concentrations increased along the x-axis of the plate. 25 ul of each CaCl2 dilution was dispensed in each row, such that concentrations increased along the y-axis of the plate. The C.” for “The C.”
Effect of ManSIFG on additional Candida species. Other Candida species were tested. Candida parapsilosis (ATCC-22019) wild type strain was used. Methods are same as described above. […]

[7] = tested on: Candida krusei, (ATCC-6258) wild type strain; assay: Antifungal activity against C. krusei; format: cell-based; conditions: even at very low concentrations (FIG. 13)
[8] = tested on: Candida glabrata (ATCC-2001) wild type strain; assay: Antifungal activity against C. glabrata; format: cell-based; conditions: FIG. 14
[9] = tested on: Candida tropicalis (ATCC-750) wild type strain; assay: Antifungal activity against C. tropicalis; format: cell-based; conditions: FIG. 15

[Ca+2].[Cl-].[Cl-] [CaCl2, Calcium chloride]
growth of C. albicans as compared to control cultures ([1]; 12 hours (FIG. 4A)): significantly inhibit | growth of C. albicans as compared to control cultures ([1]; 24 hours (FIG. 4B)): significantly inhibit | antifungal effect of CaCl2 by itself ([2]; very high concentrations (FIG. 9)): has an antifungal effect

O=C[C@@H](O)[C@@H](O)[C@H](O)[C@H](O)CO [D-Mannose, reference compound]
growth of C. albicans wild type as compared to control cultures ([3]; D-Mannose 62.5 μg/ml, 10, 14, 18 and 24-hour time points): not inhibited

OC[C@H]1O[C@H](SC[C@H]2CNC[C@@H](O)[C@@H]2O)[C@@H](O)[C@@H](O)[C@@H]1O [ManSIFG, (2R,3S,4S,5S,6R)-2-((((3S,4R,5R)-4,5-dihydroxypiperidin-3-yl)methyl)thio)-6-(hydroxymethyl)tetrahydro-2H-pyran-3,4,5-triol]
growth of C. albicans wild type as compared to control cultures ([3]; 62.5 μg/ml, 10 hours, significantly (FIG. 2)): inhibited | growth of C. albicans, difference between control and inhibitor cultures ([3]; 62.5 μg/ml, later time points (14, 18, 24 hours)): no significant difference | formation of germ tubes as compared to control cultures ([4]; 12 hours): inhibited | formation of germ tubes as compared to control cultures ([4]; 24 hours): inhibited | MIC ([2]; Candida albicans, SC5314, YPD, 37° C., 24 hours, OD600 (FIG. 7)): 31.2 to 62.5 µg/mL | effect of addition of CaCl2 on antifungal activity of ManSIFG ([2]; ManSIFG 7.81 μg/ml plus 100 mg/ml CaCl2 vs CaCl2 alone (FIG. 8)): improves the antifungal activity | inhibitory effect against Trychophoton rubrum [5]: no inhibitory effect | antifungal activity against Candida parapsilosis [6]: has antifungal activity | antifungal activity against Candida krucei [7]: has antifungal activity | antifungal activity against Candida glabrata [8]: has antifungal activity | antifungal activity against Candida tropicalis [9]: has antifungal activity

From patent US12685744B2, “Anti-fungal compositions and methods for using same” (The Research Foundation for The State University of New York, priority 2019, dated 2026)
